Biological target: A2 Adenosine receptor (Rattus norvegicus, UniProt P30543)
Assay: biochemical
Protocol: The membrane preparation is obtained as follows: Frozen pellets of PC12 cells are washed twice with ice cold, buffered, physiological saline and the cells recovered by centrifugation (1500 G) at 3° C. The separated cells are then suspended in hypotonic solution (distilled water), allowed to stand on ice for 30 minutes and are then carefully homogenized using a standard high-speed homogeniser with periodic ice-cooling to obtain a fine suspension. […] The mixture is then incubated at 37° C. After 20 minutes, the reaction is terminated by dilution with ice-cold buffer and transfer onto ice. The material obtained containing the cell membranes is recovered by centrifugation and washed by resuspension in buffer and recentrifugation. The pellet produced is then resuspended in ice-cold buffer using a hand-driven homogenizer. The resultant membrane suspension is frozen and stored under liquid nitrogen until required.
After incubation, the samples are rapidly filtered over glass-fibre mats and the filter mats are washed to remove non-receptor-bound radioligand. Receptor-bound radioligand entrapped on the filter mats is then determined by liquid scintillation counting. […] The specific binding (defined as the difference between the total binding and the non-specific binding) in the presence of the particular test compound is determined and compared with the control value.

A2 Adenosine receptor, sequence (P30543 whole entry): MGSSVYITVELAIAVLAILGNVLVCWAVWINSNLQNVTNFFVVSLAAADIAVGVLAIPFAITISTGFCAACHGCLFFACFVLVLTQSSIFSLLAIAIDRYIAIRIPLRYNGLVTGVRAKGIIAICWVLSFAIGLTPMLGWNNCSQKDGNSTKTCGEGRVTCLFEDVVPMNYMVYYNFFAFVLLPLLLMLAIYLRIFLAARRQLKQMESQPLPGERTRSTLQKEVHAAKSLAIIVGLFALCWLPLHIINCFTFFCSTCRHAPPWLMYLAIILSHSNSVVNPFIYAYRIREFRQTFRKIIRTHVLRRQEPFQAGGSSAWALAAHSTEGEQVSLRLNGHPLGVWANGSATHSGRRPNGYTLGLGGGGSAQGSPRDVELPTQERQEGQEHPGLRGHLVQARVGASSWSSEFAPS

SMILES: Nc1nc(Oc2ccccc2)nc2nc(-c3ccco3)nn12 [Example 2, 7-amino-2-(2-furyl)-5-phenoxy[1,2,4]triazolo[1,5-a][1,3,5]triazine]
- IC50: ~10 nM

Source: US5326869A (priority 1991, dated 1994)
